The subject of data set [1] is Plasmodium falciparum. In words: Antimalarial activity against synchronous ring stage Plasmodium falciparum 3D7 infected in human Erythrocyte assessed as inhibition of parasite growth incubated for 48 hrs by [3H]-hypoxanthine incorporation assay. Type of data set: functional, organism-based. The settings on record: 3D7, Erythrocyte.
The nature of data set [2]: Cytotoxicity against human NFF cells assessed as reduction in cell viability incubated for 72 hrs by SRB assay. Type of data set: toxicity, cell-based. (The SRB assay estimates cell density from bound dye.)
The nature of data set [3]: Selectivity ratio of IC50 for antimalarial activity against synchronous ring stage Plasmodium falciparum 3D7 infected in human Erythrocyte assessed as inhibition of parasite growth incubated for 48 hrs by [3H]-hypoxanthine incorporation assay to IC50 for antimalarial activity against synchronous ring stage Plasmodium falciparum 3D7 infected in human Erythrocyte assessed as inhibition of parasite growth incubated for 48 hrs by [3H]-hypoxanthine incorporation assay. Type of data set: functional.

Data set [4] in a line: Metabolic stability in human liver microsomes assessed as half life. Type of data set: ADME, Microsome. In general terms: Microsomes from liver hold many membrane-bound enzymes, among them those of drug oxidation.
Data set [5] in a line: Metabolic stability in mouse liver microsomes assessed as half life. Type of data set: ADME, Microsome.
Data set [6] can be described thus: Selectivity index, ratio of IC50 for cytotoxicity against human NFF cells to IC50 for antimalarial activity against synchronous ring stage Plasmodium falciparum 3D7 infected in human Erythrocyte assessed as inhibition of parasite growth incubated for 96 hrs. Particulars: read-out: Ratio IC50. Type of data set: toxicity, cell-based.
Data set [7] concerns Plasmodium falciparum. The data set is described as follows: Antimalarial activity against synchronous ring stage Plasmodium falciparum 3D7 infected in human Erythrocyte assessed as inhibition of parasite growth incubated for 96 hrs by [3H]-hypoxanthine incorporation assay. Type of data set: functional, organism-based. Particulars: 3D7, Erythrocyte.
Data set [8] in a line: Selectivity ratio of IC50 for antimalarial activity against synchronous ring stage Plasmodium falciparum 3D7 infected in human Erythrocyte assessed as inhibition of parasite growth incubated for 96 hrs supplemented with IPP by [3H]-hypoxanthine incorporation assay to IC50 for antimalarial activity against synchronous ring stage Plasmodium falciparum 3D7 infected in human Erythrocyte assessed as …. Type of data set: functional.

The test system of data set [9] is Plasmodium falciparum. In words: Antimalarial activity against synchronous ring stage Plasmodium falciparum 3D7 infected in human Erythrocyte assessed as inhibition of parasite growth incubated for 96 hrs supplemented with IPP by [3H]-hypoxanthine incorporation assay. Type of data set: functional, organism-based. Particulars: 3D7, Erythrocyte.
The subject of data set [10] is Plasmodium falciparum. In words: Antimalarial activity against multidrug-resistant synchronous ring stage Plasmodium falciparum Dd2 infected in human Erythrocyte assessed as inhibition of parasite growth incubated for 48 hrs by [3H]-hypoxanthine incorporation assay. Type of data set: functional, organism-based.
Data set [11] deals with Plasmodium falciparum. In words: Resistance index, ratio of IC50 for antimalarial activity against multidrug-resistant synchronous ring stage Plasmodium falciparum Dd2 infected in human Erythrocyte assessed as inhibition of parasite growth incubated for 96 hrs by [3H]-hypoxanthine incorporation assay to IC50 for antimalarial activity against synchronous ring stage Plasmodium falciparum 3D7 infected in human Erythrocyte assessed …. Type of data set: toxicity, organism-based.

A short description of data set [12]: Selectivity ratio of IC50 for antimalarial activity against multidrug-resistant synchronous ring stage Plasmodium falciparum Dd2 infected in human Erythrocyte assessed as inhibition of parasite growth incubated for 48 hrs by [3H]-hypoxanthine incorporation assay to IC50 for antimalarial activity against multidrug-resistant synchronous ring stage Plasmodium falciparum Dd2 infected in human …. Type of data set: functional.

Data set [13] has as its system Plasmodium falciparum. In words: Antimalarial activity against multidrug-resistant synchronous ring stage Plasmodium falciparum Dd2 infected in human Erythrocyte assessed as inhibition of parasite growth incubated for 96 hrs by [3H]-hypoxanthine incorporation assay. Type of data set: functional, organism-based.
A short description of data set [14]: Apparent permeability of the compound in human Caco-2 cells across apical to basolateral side. Type of data set: ADME, cell-based.

A word on the IC50: it is the concentration that inhibits the measured activity by half. For orientation: half-life means the time in which the quantity being followed falls by half. For `O=S(=O)(c1nnc(N2CCCCCC2)o1)C1CCCCC1`, the IC50 in the data set on Plasmodium falciparum [1] was above 10 µM; in the data set on Plasmodium falciparum [7], 90 nM. Besides, the IC50 at 72 h in [2] was above 100 µM. Also, the “Ratio IC50” value in [3] is on record as above 114. Also, the half-life worked out at 68 min in [4] and 7 min in data set [5]. Besides, the selectivity ratio at 96 h in [6] is above 1150.
`CCC[C@@H]1C[C@@H](C(=O)N[C@@H]([C@H]2O[C@H](SC)[C@H](O)[C@@H](O)[C@H]2O)[C@H](C)Cl)N(C)C1` [CLINDAMYCIN]: in [8], the “Ratio IC50” value is recorded as 3571. The IC50 in the data set with Plasmodium falciparum [9] was above 25000 nM.
With `CC1CCN(c2nnc(S(=O)(=O)Cc3ccc(Cl)c(Cl)c3)o2)CC1`, the IC50 in the data set on Plasmodium falciparum [10] amounted to 10.1 µM; with Plasmodium falciparum [1] it was 11.5 µM; in the data set with Plasmodium falciparum [9], 200 nM; in the data set on Plasmodium falciparum [13], 70 nM; in the data set with Plasmodium falciparum [7], 160 nM. Besides, the “Ratio IC50” value with Plasmodium falciparum [11] amounted to 0.4; in data set [3], 72; in data set [8], 1; in data set [12] it was 145. Besides, in data set [2], the IC50 at 72 h is 26 µM. Further, the half-life in data set [4] was 3 min; in [5], below 2 min. The selectivity ratio at 96 h in [6] came to 162.
As to `O=S(=O)(c1nnc(N2C3CCC2COC3)o1)C1CCCCC1`, the concentration for half-maximal inhibition (IC50) with Plasmodium falciparum [1] was above 12.5 µM; in the data set with Plasmodium falciparum [7] it was 370 nM. In addition, the IC50 at 72 h in data set [2] was above 100 µM. In addition, the “Ratio IC50” value in data set [3] is reported as above 34. In addition, the selectivity ratio at 96 h in [6] is above 270.
On the same counts, the results for `CC(C)(C)OC(=O)N1CCC(S(=O)(=O)c2nnc(N3CCOCC3)o2)CC1` are above 25 µM, 5050 nM, above 100 µM, above 5 and above 20.
On the same counts, the results for `CC1CCCCN1c1nnc(S(=O)(=O)C2CCCCC2)o1` (racemic) are above 12.5 µM, 310 nM, above 100 µM, above 40 and above 277.
With `CC(C)(C)CS(=O)(=O)c1nnc(N2CCOCC2)o1`, the IC50 in the data set with Plasmodium falciparum [1] is above 10 µM; in the data set with Plasmodium falciparum [7] it was 1340 nM. The half-inhibitory concentration (IC50) at 72 h in data set [2] is above 100 µM. For the same compound, in data set [3], the “Ratio IC50” value is reported as above 8. The selectivity ratio at 96 h in data set [6] is above 79.
As to `O=S(=O)(c1nnc(N2CCOCC2)o1)C1CCOCC1`, the IC50 was above 50 µM with Plasmodium falciparum [1] and 7090 nM in the data set with Plasmodium falciparum [7]. Also, the IC50 at 72 h in data set [2] is above 100 µM. Besides, the “Ratio IC50” value in [3] is on record as above 7. In addition, the selectivity ratio at 96 h in data set [6] is above 14.
With `O=S(=O)(c1nnc(N2CC3(CCOCC3)C2)o1)C1CCCCC1`, the 50% inhibitory concentration (IC50) in the data set with Plasmodium falciparum [1] was above 50 µM; with Plasmodium falciparum [7], 110 nM. For the same compound, the IC50 at 72 h in [2] is above 100 µM. The “Ratio IC50” value in [3] is given as above 476. Besides, in [6], the selectivity ratio at 96 h was above 909.
With `N#CC1CCN(c2nnc(S(=O)(=O)C3CCCCC3)o2)CC1`, the results for the IC50 with Plasmodium falciparum [1] and in the data set with Plasmodium falciparum [7] were above 10 µM and 490 nM, respectively. Moreover, in [2], the IC50 at 72 h was above 100 µM. Besides, in data set [3], the “Ratio IC50” value was above 21. For the same compound, the selectivity ratio at 96 h in data set [6] was above 200.
On the same counts, the results for `O=S(=O)(c1nnc(N2CCC(C(F)(F)F)CC2)o1)C1CCCCC1` are 22.1 µM, 370 nM, above 100 µM, 61 and above 270.
Take `CC1(C)CCN(c2nnc(S(=O)(=O)C3CCCCC3)o2)CC1`: the results for the 50% inhibitory concentration (IC50) in the data set on Plasmodium falciparum [1] and in the data set with Plasmodium falciparum [7] were above 25 µM and 150 nM, respectively. Also, the IC50 at 72 h in data set [2] is above 100 µM. The “Ratio IC50” value in [3] is above 171. Besides, the selectivity ratio at 96 h in [6] was above 1080.
On the same counts, the results for `CC1(C)CN(c2nnc(S(=O)(=O)C3CCCCC3)o2)CCO1` are above 25 µM, 240 nM, above 100 µM, above 105 and above 417.
On the same counts, the results for `CC(=O)N1CCN(c2nnc(S(=O)(=O)C3CCCCC3)o2)CC1` are above 50 µM, 1460 nM, above 100 µM, above 34 and above 69.
On to `O=S(=O)(c1nnc(N2CC3CCC2C3)o1)C1CCCCC1` (racemic), for which the IC50 in the data set with Plasmodium falciparum [1] was above 25 µM; with Plasmodium falciparum [7], 560 nM. The half-inhibitory concentration (IC50) at 72 h in [2] was above 100 µM. For the same compound, the “Ratio IC50” value in data set [3] was above 45. In addition, in data set [6], the selectivity ratio at 96 h is above 179.
In general, Papp A→B refers to the apparent permeability from the apical to the basolateral side of a cell layer. In the case of `O=S(=O)(c1nnc(N2CCC3(CC2)COC3)o1)C1CCCCC1`, the IC50 was above 10 µM in the data set on Plasmodium falciparum [1] and 100 nM in the data set on Plasmodium falciparum [7]. Further, the Papp A→B in [14] is 44 ×10⁻⁶ cm/s. Moreover, in [2], the IC50 at 72 h is above 100 µM. Further, the “Ratio IC50” value in [3] is reported as above 102. The half-life in [4] was 112 min; in data set [5], 18 min. Also, the selectivity ratio at 96 h in [6] is above 1020.
With `O=S(=O)(c1nnc(N2CCOCC2)o1)C1CC2CCC1C2` (racemic), the IC50 in the data set on Plasmodium falciparum [1] is above 10 µM; with Plasmodium falciparum [7] it was 280 nM. The IC50 at 72 h in [2] is above 100 µM. Further, in [3], the “Ratio IC50” value was above 36. For the same compound, the selectivity ratio at 96 h in data set [6] was above 377.
On the same counts, the results for `CC(C)(C)OC(=O)[C@@H]1CCCN1c1nnc(S(=O)(=O)C2CCCCC2)o1` are above 25 µM, 2650 nM, above 100 µM, above 9 and above 38.
For `O=S(=O)(c1nnc(N2CCCOCC2)o1)C1CCCCC1`, the IC50 in the data set with Plasmodium falciparum [1] is above 100 µM; with Plasmodium falciparum [7] it was 750 nM. Besides, the IC50 at 72 h in data set [2] is above 100 µM. The “Ratio IC50” value in data set [3] is above 134. Besides, the selectivity ratio at 96 h in data set [6] is above 133.
For the compound `O=S(=O)(CC1CCCC1)c1nnc(N2CCOCC2)o1`, the half-inhibitory concentration (IC50) was above 10 µM in the data set on Plasmodium falciparum [1] and 640 nM in the data set with Plasmodium falciparum [7]. In [2], the half-maximal inhibitory concentration (IC50) at 72 h is above 100 µM. Moreover, the “Ratio IC50” value in data set [3] was above 16. For the same compound, in data set [6], the selectivity ratio at 96 h is above 158.
Regarding `CC1CC(C)CN(c2nnc(S(=O)(=O)C3CCCCC3)o2)C1` (mixture of isomers), the IC50 with Plasmodium falciparum [1] was above 12.5 µM; with Plasmodium falciparum [7], 30 nM. Besides, the IC50 at 72 h in data set [2] was above 100 µM. Also, in data set [3], the “Ratio IC50” value is reported as above 403. The selectivity ratio at 96 h in data set [6] was above 4000.
On the same counts, the results for `O=S(=O)(c1nnc(N2CCC3(CC2)OCCO3)o1)C1CCCCC1` are above 50 µM, 900 nM, above 100 µM, above 56 and above 111.
On the same counts, the results for `CCOC(=O)C1CCCN(c2nnc(S(=O)(=O)C3CCCCC3)o2)C1` (racemic) are above 25 µM, 930 nM, above 100 µM, above 27 and above 111.
On the same counts, the results for `O=S(=O)(c1nnc(N2CCC3(CCCO3)CC2)o1)C1CCCCC1` are above 50 µM, 770 nM, above 100 µM, above 65 and above 135.
As for `CC1CCCN(c2nnc(S(=O)(=O)C3CCCCC3)o2)C1` (racemic), the 50% inhibitory concentration (IC50) was above 12.5 µM in the data set with Plasmodium falciparum [1] and 100 nM in the data set with Plasmodium falciparum [7]. Moreover, in data set [2], the half-inhibitory concentration (IC50) at 72 h is above 100 µM. Further, the “Ratio IC50” value in [3] is on record as above 125. Also, in data set [6], the selectivity ratio at 96 h is above 1000.

(Values after ChEMBL document CHEMBL5614431, “Discovery of 1,3,4-oxadiazoles with slow-action activity against Plasmodium falciparum malaria parasites” (Eur J Med Chem, 2024).)
